In PMC6277434, “Discovery of a potent HMG-CoA reductase degrader that eliminates statin-induced reductase accumulation and lowers cholesterol” (Nature Communications, 2018):
Values joined by “and” are separate entries in the source; they are usually repeats but may differ in a detail not shown here. Equal entries are not always repeated. One block for each molecule: values may come before it.

Key:
[1] = target: T1, HMGCR (Cricetulus griseus, UniProt P00347); test: Immunoblotting of endogenous HMGCR protein in CHO-7 (or CHG) cells; assay type: cell-based, Chinese hamster; settings: for endogenous HMGCR protein level (immunoblot), mean: CHG cells, DMSO = 100; for increase of HMGCR protein (maximum increment): statin 16 h, DMSO = 1
T1 construct: endogenous in cells; host or cells: CHO-7, CHG, SRD-13A, SRD-15
T1 sequence (P00347 1-887): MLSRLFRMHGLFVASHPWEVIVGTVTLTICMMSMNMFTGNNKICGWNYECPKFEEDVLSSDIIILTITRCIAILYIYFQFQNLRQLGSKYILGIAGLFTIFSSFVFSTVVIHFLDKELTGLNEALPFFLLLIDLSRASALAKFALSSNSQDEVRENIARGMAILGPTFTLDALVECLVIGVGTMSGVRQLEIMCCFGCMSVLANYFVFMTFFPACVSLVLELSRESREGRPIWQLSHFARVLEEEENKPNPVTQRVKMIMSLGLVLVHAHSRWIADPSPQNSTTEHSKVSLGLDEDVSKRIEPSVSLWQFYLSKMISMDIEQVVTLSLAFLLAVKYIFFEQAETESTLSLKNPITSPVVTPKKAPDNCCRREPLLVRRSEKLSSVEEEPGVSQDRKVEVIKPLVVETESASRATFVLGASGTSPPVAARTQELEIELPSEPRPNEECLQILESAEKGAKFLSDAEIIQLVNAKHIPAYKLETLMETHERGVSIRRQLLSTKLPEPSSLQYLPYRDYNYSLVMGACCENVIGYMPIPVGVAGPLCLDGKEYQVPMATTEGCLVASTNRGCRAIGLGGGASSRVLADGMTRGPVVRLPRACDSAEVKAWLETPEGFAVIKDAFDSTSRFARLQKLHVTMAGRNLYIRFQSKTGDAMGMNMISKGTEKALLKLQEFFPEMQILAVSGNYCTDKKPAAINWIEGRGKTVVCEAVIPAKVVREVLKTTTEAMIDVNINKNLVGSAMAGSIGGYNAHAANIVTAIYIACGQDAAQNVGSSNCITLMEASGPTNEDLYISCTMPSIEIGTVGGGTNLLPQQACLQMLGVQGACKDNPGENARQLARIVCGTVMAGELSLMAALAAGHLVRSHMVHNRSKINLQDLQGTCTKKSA
Protocol: CHO-7 (Chinese hamster ovary cell, a clone of CHO-K1 cell line selected for growth in LPDS) and Huh7 (a human hepatocellular carcinoma cell line), SRD-13A (a Scap-deficient CHO-7 cell line) and SRD-15 (an Insig-1 and Insig-2-deficient CHO-7 cell line) were generous gifts from Russell Debose-Boyd at UT Southwestern Medical Center, USA. All cells were grown in a monolayer at 37 °C with 5% CO2. Huh7 cells were maintained in medium A supplemented with 10% FBS. CHO-7 and SRD-15 cells were maintained in medium B supplemented with 5% FBS. SRD-13A cells were maintained in medium B with 5% FBS, 5 μg ml^−1 cholesterol, 1 mM sodium mevalonate, 10 μM sodium oleate. No cell lines used in this study were found in the database of commonly misidentified cell lines that is maintained by ICLAC and NCBI Biosample. The cell lines have not been authenticated recently. No test for mycoplasma contamination was performed.
(§1) Cells were harvested and homogenized in the RIPA buffer (50 mM Tris-HCl, pH 8.0, 150 mM NaCl, 2 mM MgCl2, 1.5% NP-40, 0.1% SDS, and 0.5% sodium deoxycholate) supplemented with protease cocktail inhibitor, 10 μM MG-132, 10 μg ml^−1 leupeptin and 1 mM phenylmethylsulfonyl fluoride. The protein concentrations of lysates were determined using BCA method (Beyotime). Samples were mixed with the membrane protein solubilization buffer (62.5 mM Tris-HCl, pH 6.8, 15% SDS, 8 M urea, 10% glycerol, and 100 mM DTT) plus the 4× loading buffer (150 mM Tris-HCl, pH 6.8, 12% SDS, 30% glycerol, 6% 2-mercaptoethanol, and 0.02% bromophenol blue) and incubated for 30 min at 37 °C. Proteins were resolved by SDS-PAGE and transferred to nitrocellulose membranes (GE Healthcare). Immnoblots were blocked with 5% non-fat milk in TBS containing 0.075% Tween-20 (TBST) and probed with indicated antibodies overnight at 4 °C. After washing in TBST for five times, blots were incubated with HRP-conjugated secondary antibodies for 2 h at room temperature. Immunoreactivity was developed with Clarity Western ECL chemiluminescent substrates (170–5061, Bio-Rad). Western blot images were captured by Amersham Imager 600 (GE Healthcare), and integrated optical intensities of each band were quantified by Image-Pro Plus 6 software (Media Cybernetics). Uncropped blots are shown in Supplementary Figs. 9–13.

[2] = tested on: LXR signaling pathway; test: RT-qPCR of LXR target genes (SREBP-1c, ABCA1, ABCG8) in Huh-7 cells; assay type: cell-based, human; settings: 16 h
Protocol: Cells were treated as described in corresponding figure legends, then total RNA was extracted from cells or mouse livers using TRI Reagent (T9424, Sigma-Aldrich). Equal amounts of RNA from cells or mice receiving the same treatment were pooled were used for cDNA synthesis with oligo dT and reverse transcriptase MLV (Promega). Gene expression was analyzed by quantitative real-time PCR on a Stratagene Mx30005PTM Q-PCR Systems. The primers used were listed in Supplementary Tables 2–4. […]
pathway. a-c Huh-7 cells were treated with indicated compounds for 16 h and then harvested for total RNA isolation and RT-qPCR. Cells treated with LXR agonist T0901317 w ere used as positive controls. The relative mRNA levels of SREBP -1c (a), ABCA1 (b) and ABCG8 (c) were quantified . GAPDH was the reference gene. The relative mRNA level in DMSO-treated cells was defined as 1. Data are from 3 independent experiments and presented as mean ± SD.
(1 picture or pasted object on this page, not shown here)

[3] = target: T2, HMGCR (TM1-8)-GFP (Cricetulus griseus, UniProt P00347)
T2 sequence (P00347 1-346): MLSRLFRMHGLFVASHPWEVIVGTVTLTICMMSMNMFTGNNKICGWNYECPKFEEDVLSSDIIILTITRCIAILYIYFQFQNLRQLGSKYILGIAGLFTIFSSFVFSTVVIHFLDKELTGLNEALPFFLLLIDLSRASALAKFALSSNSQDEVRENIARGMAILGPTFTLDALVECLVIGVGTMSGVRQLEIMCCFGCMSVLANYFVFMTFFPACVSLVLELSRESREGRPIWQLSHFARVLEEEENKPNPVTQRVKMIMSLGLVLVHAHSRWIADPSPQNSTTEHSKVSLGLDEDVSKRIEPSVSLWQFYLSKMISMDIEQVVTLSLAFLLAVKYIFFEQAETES

[4] = tested on: LXR signaling pathway; design: method as in earlier work; settings: previous studies ref 2 (Yang, C. et al. J. Biol. Chem. 281, 27816-27826 (2006)); cited from earlier work
[5] = target: T2, HMGCR (TM1-8)-GFP; test: HMGCR (TM1-8)-GFP fluorescent assay (high-content imaging) in CHG cells; settings: 16 h; for HMGCR (TM1-8)-GFP fluorescent intensity, mean: DMSO-treated cells = 100
[6] = target: T2, HMGCR (TM1-8)-GFP; test: Immunoblotting of overexpressed HMGCR (TM1-8)-GFP in CHG cells; assay type: cell-based, hamster; design: corresponding to the amino acids from 1 to 346 of hamster HMGCR; expressed in transfected cells; settings: 16 h, DMSO = 100
Protocol: Fig. 2 A reporting system that measures HMGCR degradation. a Schematic of the HMGCR (TM1-8)-GFP fusion protein. […] Data are from three independent experiments and presented as mean ± SD. Source data are provided as a Source Data File.
as §1

[7] = tested on: Hmgcr mRNA; test: RT-qPCR of Hmgcr mRNA in CHO-7 cells; assay type: cell-based, Chinese hamster; settings: CHO-7 cells, statin 16 h (lovastatin up to 10 μM), DMSO = 1
Protocol: Cells were treated as described in corresponding figure legends, then total RNA was extracted from cells or mouse livers using TRI Reagent (T9424, Sigma-Aldrich). Equal amounts of RNA from cells or mice receiving the same treatment were pooled were used for cDNA synthesis with oligo dT and reverse transcriptase MLV (Promega). Gene expression was analyzed by quantitative real-time PCR on a Stratagene Mx30005PTM Q-PCR Systems. The primers used were listed in Supplementary Tables 2–4.

[8] = read-out: HMGCR (TM1-8)-GFP fluorescent intensity, mean

Structure (SMILES): CC(C)CCC[C@@H](C)[C@H]1CC[C@@]2(C)C3=C(CC[C@]12C)[C@@]1(C)CC[C@H](O)C(C)(C)[C@@H]1CC3 [24,25-DHL, 24,25-dihydrolanosterol, reference compound]
endogenous HMGCR protein level (immunoblot), mean ([1]; 0.3 uM, 16 h): 73.3548 | endogenous HMGCR protein level (immunoblot), mean ([1]; 1 uM, 16 h): 35.9866 | endogenous HMGCR protein level (immunoblot), mean ([1]; 3 uM, 16 h): 7.195 | EC50 ([1]; CHO-7 cells, 16 h, read-out: EC50 to decrease endogenous HMGCR (dose–response immunoblotting)): 1.6 µM | expression of LXR target genes (SREBP-1c, ABCA1 and ABCG8) mRNA [2]: did not activate the LXR target genes | EC50 [3]: ~1.5 µM and 1.5 µM | activation of LXR [4]: no effect | HMGCR (TM1-8)-GFP fluorescent intensity, mean ([5]; 0.001 uM): 100 | HMGCR (TM1-8)-GFP fluorescent intensity, mean ([5]; 0.0078 uM): 100.168 | HMGCR (TM1-8)-GFP fluorescent intensity, mean ([5]; 0.023 uM): 100 | HMGCR (TM1-8)-GFP fluorescent intensity, mean ([5]; 0.078 uM): 97.2588 | HMGCR (TM1-8)-GFP fluorescent intensity, mean ([5]; 0.234 uM): 80.6542 | HMGCR (TM1-8)-GFP fluorescent intensity, mean ([5]; 2.34 uM): 45.713 | HMGCR (TM1-8)-GFP fluorescent intensity, mean ([5]; 15.6 uM): 10.4985 | HMGCR (TM1-8)-GFP fluorescent intensity, mean ([5]; 31.2 uM): 5 | overexpressed HMGCR (TM1-8)-GFP protein level (anti-GFP immunoblot), mean ([6]; 0.3 uM): 87.2697 | overexpressed HMGCR (TM1-8)-GFP protein level (anti-GFP immunoblot), mean ([6]; 1 uM): 51.2487 | overexpressed HMGCR (TM1-8)-GFP protein level (anti-GFP immunoblot), mean ([6]; 3 uM): 6.898

Structure (SMILES): CC(C)CCC[C@@H](C)[C@H]1CC[C@H]2[C@@H]3CC=C4C[C@@H](O)CC[C@]4(C)[C@H]3CC[C@]12C [Cholesterol]
endogenous HMGCR protein level (immunoblot), mean ([1]; 1 uM, 16 h): 100.862 | endogenous HMGCR protein level (immunoblot), mean ([1]; 3 uM, 16 h): 95.8793 | endogenous HMGCR protein level (immunoblot), mean ([1]; 10 uM, 16 h): 57.8709 | DC50 [3]: ~30.4 µM and 30.4 µM | remaining activity at 0.001 µM [5, 8]: 100% | remaining activity at 0.01 µM [5, 8]: 100% | remaining activity at 0.1 µM [5, 8]: 95.9% | remaining activity at 0.3 µM [5, 8]: 88.9% | remaining activity at 1 µM [5, 8]: 77.2% | remaining activity at 3 µM [5, 8]: 66.6% | remaining activity at 10 µM [5, 8]: 65.5% | remaining activity at 20 µM [5, 8]: 58.9% | remaining activity at 30 µM [5, 8]: 47% | overexpressed HMGCR (TM1-8)-GFP protein level (anti-GFP immunoblot), mean ([6]; 1 uM): 93.1421 | overexpressed HMGCR (TM1-8)-GFP protein level (anti-GFP immunoblot), mean ([6]; 3 uM): 90.7374 | overexpressed HMGCR (TM1-8)-GFP protein level (anti-GFP immunoblot), mean ([6]; 10 uM): 74.0079

Structure (SMILES): CC(C)c1c(C(=O)Nc2ccccc2)c(-c2ccccc2)c(-c2ccc(F)cc2)n1CC[C@@H](O)C[C@@H](O)CC(=O)O [atorvastatin]
increase of HMGCR protein (maximum increment) ([1]; CHO-7 cells): ~9 fold | increase of Hmgcr mRNA abundance [7]: 1.8 fold

Structure (SMILES): CC(C)n1c(/C=C/C(O)CC(O)CC(=O)O)c(-c2ccc(F)cc2)c2ccccc21 (stereo not shown) [fluvastatin]
increase of HMGCR protein (maximum increment) ([1]; CHO-7 cells): ~11 fold | increase of Hmgcr mRNA abundance [7]: 2.6 fold

Structure (SMILES): CC(C)=CCC[C@@H](C)[C@H]1CC[C@@]2(C)C3=C(CC[C@]12C)[C@@]1(C)CC[C@H](O)C(C)(C)[C@@H]1CC3 [lanosterol]
expression of LXR target genes (SREBP-1c, ABCA1 and ABCG8) mRNA [2]: did not activate the LXR target genes | activation of LXR [4]: no effect

Structure (SMILES): CC[C@H](C)C(=O)O[C@H]1C[C@H](O)C=C2C=C[C@H](C)[C@H](CC[C@@H](O)C[C@@H](O)CC(=O)O)[C@H]21 [pravastatin]
increase of HMGCR protein (maximum increment) ([1]; CHO-7 cells): ~12 fold | increase of Hmgcr mRNA abundance [7]: 2.4 fold

Continued, in another order:

increase of HMGCR protein (maximum increment) ([1]; CHO-7 cells): ~17 fold
Structure (SMILES): CC(C)c1nc(N(C)S(C)(=O)=O)nc(-c2ccc(F)cc2)c1/C=C/[C@@H](O)C[C@@H](O)CC(=O)O [rosuvastatin]
increase of Hmgcr mRNA abundance [7]: 2.3 fold

increase of HMGCR protein (maximum increment) ([1]; CHO-7 cells): ~ 15 fold
Structure (SMILES): CCC(C)(C)C(=O)O[C@H]1C[C@@H](C)C=C2C=C[C@H](C)[C@H](CC[C@@H]3C[C@@H](O)CC(=O)O3)[C@H]21 [simvastatin]
increase of Hmgcr mRNA abundance [7]: 3.5 fold
